The results in this text go back to patent publication US12550899B2, “Topramezone derivative and use thereof” (priority 2023, dated 2026).

The structures appear in SMILES notation.

Type in all cases: in vivo
The subject of data set [1] is Abutilon theophrasti medicus. The experiment in a line: Laboratory bioactivity efficacy test 2.2 (foliar spray). Conditions: for Visual observation of weeds: 3 to 7 days after application, broadleaf weeds like Abutilon theophrasti medicus; for GR90 (95% confidence interval) / GR50 (95% confidence interval): fresh weight control efficacy 20 days post-application.
For another data set, the system named is Digitaria sanguinalis. Described as above. The following applies: fresh weight control efficacy 20 days post-application.
Another data set relates to Eleusine indica. The description is as above. The following applies: fresh weight control efficacy 20 days post-application.
For the next data set, the system named is corn. The experiment in a line: Corn safety laboratory test, visual observation and overall conclusion. Here is the method: Three corn varieties: Zhengdan 958, white waxy corn, and sweet corn (Runhua sweet corn).
The soil used for the test was a mixture of surface 20 cm loam and vermiculite, mixed in a volume ratio of 3:1 to form a culture soil. The test corn was cultured in a glass greenhouse with a temperature ranging from 25° C. to 35° C. and under natural light.
A measured quantity of corn seeds were sown in plastic pots with a diameter of 15 cm, and covered with 2-3 cm of soil. The ports were then placed in enamel trays filled with water, and watered by bottom irrigation. After sowing, the pots were transferred to the glass greenhouse for cultivation and growth.
In the corn safety test, dosages were set for the two Compounds (Compound I of the present invention and Compound II of the present invention) and the control herbicide Topramezone, which were 15, 30, 60, and 120 grams of active ingredient per hectare respectively. In addition, a blank control was also prepared.
The required amount of the herbicide was accurately measured out, an appropriate amount of emulsifier and organic solvent were added to dissolve the herbicide, and then a certain amount of water was added therein until the herbicide was diluted to the required dosage by using the serial dilution method for standby.
Corn stems and leaves were uniformly sprayed at the 3-4-leaf stage.
The ASS-3 automatic control spraying system with a fan-shaped nozzle was used indoors for herbicide application. Depending on the nozzle pressure and flow rate, 50 mL of herbicide solution was applied to a spraying area of 1.1 m^2 (which was equivalent to the water consumption of 30 L per mu). The system's operating speed was calibrated. The plastic pots to be treated were arranged evenly on the spraying platform to ensure uniform treatment. The spray pressure was set to 0.35 MPa, and the flow rate of the fan-shaped nozzle was set to 800 mL/min. The spraying was carried out in sequence from the low dosage to the high dosage. Each treatment was repeated three times.
The herbicide was applied once. After spraying, the pots were air-dried for one day and then placed in the glass greenhouse. Regular watering was conducted to maintain moisture.
After application of the herbicide, whether there were any phytotoxic symptoms in the corn for each treatment was recorded. If yes, the phytotoxicity symptoms and grade were recorded in detail. 15 days after application, the fresh weight of the corn in each treatment was measured and the fresh weight control efficacy was calculated to assess the safety of the herbicide on the corn.

With `COC(=O)OC(C)Oc1c(C(=O)c2ccc(S(C)(=O)=O)c(C3=NOCC3)c2C)cnn1C` (centres unmarked) [Compound I, 1-((4-(3-(4,5-dihydroisoxazol-3-yl)-2-methyl-4-(methylsulfonyl)benzoyl)-1-methyl-1H-pyrazol-5-yl)oxy)ethyl methyl carbonate], the “Visual observation of weeds” value in data set [1] was “directly dried up and died”. For the same molecule, the “GR90 (95% confidence interval)” value in data set [1] (Abutilon theophrasti Medicago) is recorded as 9.48 (4.30-13.21) g a.i./ha. In addition, the “GR50 (95% confidence interval)” value in data set [1] (Abutilon theophrasti medicus) is 3.16 (0.37-5.92) g a.i./ha. The GR50 with Digitaria sanguinalis is 10.92 g a.i./ha; with Eleusine indica, 2.71 g a.i./ha. The GR90 worked out at 35.88 g a.i./ha with Digitaria sanguinalis and 14.85 g a.i./ha in the data set with Eleusine indica. For the same molecule, the “Visual observation of corn” value in the data set on corn (in vivo) is on record as “all normal”.
`Cc1c(C(=O)c2cnn(C)c2OC(=O)C(C)(C)C)ccc(S(C)(=O)=O)c1C1=NOCC1` [Compound II, 4-(3-(4,5-dihydroisoxazol-3-yl)-2-methyl-4-(methylsulfonyl)benzoyl)-1-methyl-1H-pyrazol-5-yl pivalate]: the “Visual observation of weeds” value in data set [1] was “directly dried up and died”. Also, in data set [1] (Abutilon theophrasti Medicago), the “GR50 (95% confidence interval)” value is 1.19 (0.26-2.46) g a.i./ha and the “GR90 (95% confidence interval)” value was 7.90 (4.76-10.66) g a.i./ha. In the data set with Digitaria sanguinalis, this molecule came in with a GR50 of 12.53 g a.i./ha and a GR90 of 48.19 g a.i./ha. Besides, in the data set on Eleusine indica, the GR50 is reported as 3.79 g a.i./ha and the GR90 is recorded as 19.79 g a.i./ha.
On to `Cc1c(C(=O)c2cnn(C)c2O)ccc(S(C)(=O)=O)c1C1=NOCC1` [Topramezone], for which the “Visual observation of weeds” value in data set [1] was “directly dried up and died”. Further, the “GR50 (95% confidence interval)” value in data set [1] (Abutilon theophrasti Medicago) is reported as 2.02 (0.77-3.38) g a.i./ha. In addition, in data set [1] (Abutilon theophrasti Medicago), the “GR90 (95% confidence interval)” value was 8.83 (6.22-11.10) g a.i./ha. In addition, the GR50 turned out to be 10.09 g a.i./ha with Digitaria sanguinalis and 2.75 g a.i./ha in the data set on Eleusine indica. The GR90 is reported as 36.27 g a.i./ha in the data set with Digitaria sanguinalis and 16.07 g a.i./ha in the data set on Eleusine indica. In addition, the “Visual observation of corn” value is given as “safe for corn” with corn (3 to 7 days after application), “safe for corn” with corn (10 days after application) and “basically growing normally” in the data set with corn (15 days after application). For the same molecule, the “Overall safety for corn” value with corn (Zhengdan 958, waxy corn and sweet corn) was “high safety levels”.
